Tests used:
Assay type in all cases: biochemical
[1] = target: 12α-HSDH aus Clostridium sp. group P strain 48-50, Wildtypenzym (Clostridium sp., UniProt P21215); test: Product inhibition of 12α-HSDH by 12-ketochenodeoxycholic acid; details: loss of activity at 5 % Umsatz; 100 % = activity at 0 % Umsatz (5mM CS); product concentration not given
Source text: "Poduktinhibition" der 12α-HSDH beschreibt die Verringerung der enzymatischen Aktivität in Gegenwart eines bei einer durch das Enzym katalysierten enzymatischen Umsetzung gebildeten Produkts. Bei Umsetzung zu CS ist so z.B. eine Inhibition durch 12-Keto-CDCS zu beobachten. Eine "Verringerung der Produktinhibition" beschreibt die verringerte prozentuale Abnahme der Enzymaktivität einer erfindungsgemäß eingesetzten Enzymmutante im Vergleich zu einem Referenzsystem, wie z.B. dem nativen HSDH-Enzym, jeweils bezogen auf die bei 0 % Umsatz (entsprechend 5mM CS) ermittelte Enzymaktivität als 100 %-Aktivitätswert. Diese Verringerung kann, wie im experimentellen Teil, bzw. in der Legende zu Figur 9 beschrieben, bestimmt werden. Verringerungen der Produktinhibition können auch über das Verhältnis der Restaktivitäten von Mutante zu Referenzenzym jeweils bestimmt bei gleichem prozentualen Umsatz, ausgedrückt werden. So kann die ererfindungsgemäß eingesetzte Mutante eine um den Faktor 1,1 bis 100, wie z.B. 1,5 bis 20 oder 2 bis 10 erhöhte Aktivität besitzen.
Die Aktivität wird wie folgt definiert: 1 U des Enzyms entspricht der Enzymmenge, welche die Umsetzung von 1 µmol/min einer 5 mM Cholsäurelösung in KaliumphosphatPuffer (50 mM, pH 8,0) bei Raumtemperatur (d.h. ca. 20 °C-23 °C) katalysiert. […]

[2] = target: T1, Flavodoxin Reduktase aus E. coli (EC 1.18.1.2), SEQ ID NO: 26 (Escherichia coli, UniProt P28861); test: NADPH oxidation with DCIP as electron acceptor, tolerance to cholic acid; details: remaining activity with 0,1 M Cholsäure, 100% = ohne Cholsäure; 75 µM DCIP, 100 µM NADPH, 50 mM Tris-HCl (pH 8); read-out: Mit 0, 1 M Cholsäure, U/mg Protein (%)
T1 construct: made in house; host or cells: E. coli
Experimental: (§1) Die NADPH-Dehydrogenase Aktivität wurde unter Verwendung von Dichlorphenolindophenol (DCIP) als Substrat bestimmt. Die Reaktion wurde durch Zugabe von Enzym (2-50 µl) zu 1 ml Reaktionsgemisch, enthaltend 50 mM Tris-HCl (pH 8), 75 µM DCIP, 100 µM NADPH mit bzw. ohne 0,1 M Cholsäure gestartet. Die Reduktion von DCIP wurde durch Abnahme der Extinktion bei 600 nm spektrophotometrisch bestimmt. Die Aktivitätseinheit (µM DCIP reduziert/min) wurde mit Hilfe des Extinktions-Coeffizienten von DCIP von 20 mM^-1 cm^-1 bei 600 nm bestimmt.
(§2) Folgende Enzyme wurden getestet: Flavodoxin Reduktase aus E. coli, Reduktase Domäne der CYP102A1 aus Bacillus megaterium; Glutathion Reduktase aus Saccharomyces cerevisiae und Diaphorase aus Clostridium kluyveri. Die Ergebnisse sind in der folgenden Tabelle 2 zusammengestellt.

[3] = target: T2, Glutathion Reduktase aus Saccharomyces cerevisiae (Saccharomyces cerevisiae, UniProt P41921); test: as above; details: remaining activity with 0,1 M Cholsäure, 100% = ohne Cholsäure; 75 µM DCIP, 100 µM NADPH, 50 mM Tris-HCl (pH 8); read-out: Mit 0, 1 M Cholsäure, U/mg Protein (%)
T2 construct: purchased Sigma
T2 sequence (P41921 1-467 isoform P41921-2): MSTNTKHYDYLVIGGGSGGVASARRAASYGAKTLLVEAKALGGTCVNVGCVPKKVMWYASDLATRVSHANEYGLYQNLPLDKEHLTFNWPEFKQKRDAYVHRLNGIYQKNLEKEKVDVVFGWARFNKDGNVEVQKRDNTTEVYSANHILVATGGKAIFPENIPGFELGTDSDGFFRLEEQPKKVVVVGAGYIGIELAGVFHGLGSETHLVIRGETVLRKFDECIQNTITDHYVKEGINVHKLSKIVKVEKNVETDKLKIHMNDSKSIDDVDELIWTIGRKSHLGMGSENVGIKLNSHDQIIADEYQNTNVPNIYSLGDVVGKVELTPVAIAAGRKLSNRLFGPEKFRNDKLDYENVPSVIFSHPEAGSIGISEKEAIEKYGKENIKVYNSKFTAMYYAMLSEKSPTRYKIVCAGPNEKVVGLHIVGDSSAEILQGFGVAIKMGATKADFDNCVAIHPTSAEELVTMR
Experimental: as §1, §2

[4] = system: Diaphorase aus Clostridium kluyveri; test: as above; details: remaining activity with 0,1 M Cholsäure, 100% = ohne Cholsäure; 75 µM DCIP, 100 µM NADPH, 50 mM Tris-HCl (pH 8)
Experimental: as §1, §2

[5] = target: Reduktase Domäne der CYP102A1 aus Bacillus megaterium (EC 1.6.2.4), SEQ ID NO: 24 (Priestia megaterium, UniProt P14779); test: as above; details: remaining activity with 0,1 M Cholsäure, 100% = ohne Cholsäure; 75 µM DCIP, 100 µM NADPH, 50 mM Tris-HCl (pH 8); read-out: Mit 0, 1 M Cholsäure, U/mg Protein (%)
Experimental: as §1, §2

[6] = system: NADPH Dehydrogenase aus Bacillus stearothermophilus Sulfit Reduktase (EC 1.8.1.2), SEQ ID NO: 28; test: NADPH oxidation with riboflavin as electron acceptor, tolerance to cholic acid; details: activity with 0,1 M Cholsäure, 100% = ohne Cholsäure; 10 µM Riboflavin, 100 µM NADPH, 50 mM Tris-HCl (pH 8)
Experimental: (§3) Die NADPH-Oxidation unter Verwendung von Riboflavin als Elektronenakzeptor wurde in 1 ml Reaktionsmedium, enthaltend 2-50 µl Enzymlösung, 50 mM Tris-HCl (pH 8), 10 µM Riboflavin, 100 µM NADPH mit und ohne 0,1 M Cholsäure bestimmt. Die Oxidation von NADPH wurde über die Abnahme der Extinktion bei 340 nm spektrophotometrisch aufgezeichnet. Die Aktivitätseinheit (uM NADPH oxidiert/min) wurde mit Hilfes des millimolaren Extinktionscoeffizienten für NADPH von 6,22 mM^-1 cm^-1 bei 340 nm bestimmt.
(§4) Folgende Enzyme wurden getestet: NADPH Dehydrogenase aus Bacillus stearothermophilus Sulfit Reduktase, Flavin-Subunit von Sulfit-Reduktase aus E. coli und NAD(P)H-Flavin Reduktase aus E. coli. Die Ergebnisse sind in folgender Tabelle 3 zusammengefasst: TABELLE 3

[7] = target: T3, NAD(P)H-Flavin Reduktase aus E. coli (EC 1.5.1.29 / 1.16.1.3), SEQ ID NO: 30 (Escherichia coli, UniProt P0AEN1); test: as above; details: activity with 0,1 M Cholsäure, 100% = ohne Cholsäure; 10 µM Riboflavin, 100 µM NADPH, 50 mM Tris-HCl (pH 8); read-out: Mit 0, 1 M Cholsäure, U/ml E. coli Zell-Lysate (%)
T3 construct: made in house; host or cells: E. coli (cell lysate)
Experimental: as §3, §4

[8] = target: T4, NADPH Dehydrogenase aus Sulfit-Reduktase (E. coli); Flavin-Subunit von Sulfit-Reduktase aus E. coli (Escherichia coli, UniProt P38038); test: as above; details: activity with 0,1 M Cholsäure, 100% = ohne Cholsäure; 10 µM Riboflavin, 100 µM NADPH, 50 mM Tris-HCl (pH 8)
T4 construct: made in house; host or cells: E. coli (cell lysate)
Experimental: as §3, §4

T4 sequence (P38038 whole entry): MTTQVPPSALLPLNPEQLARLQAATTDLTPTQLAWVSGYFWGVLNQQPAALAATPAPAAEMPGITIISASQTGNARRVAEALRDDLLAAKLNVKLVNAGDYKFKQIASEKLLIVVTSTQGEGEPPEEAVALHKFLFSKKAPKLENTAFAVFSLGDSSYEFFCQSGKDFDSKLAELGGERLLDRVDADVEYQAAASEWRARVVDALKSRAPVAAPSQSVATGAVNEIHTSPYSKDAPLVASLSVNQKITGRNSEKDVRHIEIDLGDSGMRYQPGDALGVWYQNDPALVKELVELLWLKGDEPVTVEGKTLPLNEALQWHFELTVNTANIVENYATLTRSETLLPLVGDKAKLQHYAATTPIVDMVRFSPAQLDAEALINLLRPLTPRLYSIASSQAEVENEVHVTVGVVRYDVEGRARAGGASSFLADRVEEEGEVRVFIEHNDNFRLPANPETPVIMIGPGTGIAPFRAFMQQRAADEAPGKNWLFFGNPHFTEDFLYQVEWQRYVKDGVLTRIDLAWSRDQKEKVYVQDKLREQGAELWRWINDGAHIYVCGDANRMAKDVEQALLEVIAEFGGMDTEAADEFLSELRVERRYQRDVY
Sequence of Reduktase Domäne der CYP102A1 aus Bacillus megaterium (EC 1.6.2.4), SEQ ID NO: 24 (P14779 473-1049): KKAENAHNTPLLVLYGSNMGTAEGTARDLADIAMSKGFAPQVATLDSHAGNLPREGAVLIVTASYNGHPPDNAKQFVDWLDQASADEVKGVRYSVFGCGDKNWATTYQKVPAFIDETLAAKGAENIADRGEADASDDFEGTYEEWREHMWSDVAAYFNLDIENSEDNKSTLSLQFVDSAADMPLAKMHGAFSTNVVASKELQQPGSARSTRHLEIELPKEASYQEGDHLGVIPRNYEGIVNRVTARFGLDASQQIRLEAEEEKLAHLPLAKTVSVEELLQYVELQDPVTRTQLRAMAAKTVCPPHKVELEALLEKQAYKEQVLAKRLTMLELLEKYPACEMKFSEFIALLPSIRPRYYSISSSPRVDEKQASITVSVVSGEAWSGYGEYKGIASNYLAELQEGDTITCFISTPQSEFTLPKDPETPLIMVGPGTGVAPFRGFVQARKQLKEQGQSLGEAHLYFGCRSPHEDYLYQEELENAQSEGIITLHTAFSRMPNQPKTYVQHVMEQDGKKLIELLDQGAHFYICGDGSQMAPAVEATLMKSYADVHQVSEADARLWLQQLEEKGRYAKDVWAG
Sequence of 12α-HSDH aus Clostridium sp. group P strain 48-50, Wildtypenzym (P21215 whole entry): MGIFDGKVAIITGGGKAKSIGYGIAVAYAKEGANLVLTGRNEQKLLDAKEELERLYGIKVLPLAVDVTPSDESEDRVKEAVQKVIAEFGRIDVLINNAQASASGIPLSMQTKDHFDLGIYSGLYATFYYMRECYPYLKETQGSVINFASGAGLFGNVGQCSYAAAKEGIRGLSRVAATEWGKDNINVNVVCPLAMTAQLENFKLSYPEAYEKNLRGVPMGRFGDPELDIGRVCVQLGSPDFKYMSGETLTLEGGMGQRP
T1 sequence (P28861 whole entry): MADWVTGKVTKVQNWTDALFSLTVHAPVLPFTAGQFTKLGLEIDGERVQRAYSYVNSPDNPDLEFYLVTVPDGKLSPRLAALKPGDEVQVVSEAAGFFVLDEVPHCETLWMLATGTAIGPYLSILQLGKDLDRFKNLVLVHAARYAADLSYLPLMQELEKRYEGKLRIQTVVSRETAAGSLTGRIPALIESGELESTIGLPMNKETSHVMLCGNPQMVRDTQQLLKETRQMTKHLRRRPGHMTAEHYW
T3 sequence (P0AEN1 whole entry): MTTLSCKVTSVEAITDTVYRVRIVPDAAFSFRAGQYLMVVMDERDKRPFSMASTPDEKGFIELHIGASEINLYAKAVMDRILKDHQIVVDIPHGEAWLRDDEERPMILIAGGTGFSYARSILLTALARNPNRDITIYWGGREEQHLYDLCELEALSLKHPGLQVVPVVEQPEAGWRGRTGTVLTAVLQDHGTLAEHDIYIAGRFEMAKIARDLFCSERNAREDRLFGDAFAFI

SMILES: C[C@H](CCC(=O)O)[C@H]1CC[C@H]2[C@@H]3[C@H](O)C[C@@H]4C[C@H](O)CC[C@]4(C)[C@H]3CC(=O)[C@]12C [12-Ketochenodesoxycholsäure]
- Verlust (Produktinhibierung durch 12-Ketochenodesoxycholsäure) [1]: 60%

SMILES: C[C@H](CCC(=O)O)[C@H]1CC[C@H]2[C@@H]3[C@H](O)C[C@@H]4C[C@H](O)CC[C@]4(C)[C@H]3C[C@H](O)[C@]12C [Cholsäure]
- activity at 100000 µM [2]: 93%
- activity at 100000 µM [3]: 15%
- Mit 0, 1 M Cholsäure, U/mg Protein (%) [4]: 0,26 (3 %)
- activity at 100000 µM [5]: 35%
- Mit 0, 1 M Cholsäure, U/ml E. coli Zell-Lysate (%) [6]: 22,1 (155 %)
- activity at 100000 µM [7]: 5%
- Mit 0, 1 M Cholsäure, U/ml E. coli Zell-Lysate (%) [8]: 2,1 (6 %)

Source: patent publication EP2333100B1, “NAD(P)+-cofactor regeneration system und its use” (priority 2009, dated 2011)
